Reference: patent publication US20250059187A1, “COVALENTLY BINDING INHIBITORS OF G12S, G12D AND/OR G12E MUTANTS OF K-RAS GTPASE” (The Regents of the University of California, priority 2021, published 2025)

What was measured:
[1] = system: A549 cells (homozygous KRAS p.G12S mutation); test: Immunoblot and Raf-RBD pulldown in A549 cells; format: cell-based; settings: 2 h
Protocol: (§1) Cells were passed for at least two generations after cryorecovery before they were used for assays. All cell lines were tested mycoplasma negative using MycoAlert™ Mycoplasma Detection Kit (Lonza). When indicated, cells were treated with drugs at 40-60% confluency at a final DMSO concentration of 1%. At the end of treatment period, cells were placed on ice. Unless otherwise indicated, adherent cells were washed once with ice-cold PBS (1 mL), scraped with a spatula, and pelleted by centrifugation (500×g, 5 min). Suspension cells were pelleted by centrifugation (500×g, 5 min), washed with 1 mL ice-cold PBS, and pelleted again. Cells were lysed in RIPA buffer supplemented with protease and phosphatase inhibitors (cOmplete and phosSTOP, Roche) on ice for 10 min. For RBD pulldown experiments, cells were lysed in Co-IP Lysis Buffer in lieu of RIPA buffer. Lysates were clarified by high-speed centrifugation (19,000×g, 10 min). Concentrations of lysates were determined with protein BCA assay (Thermo Fisher) and adjusted to 2 mg/mL with additional RIPA buffer (or Co-IP Lysis Buffer). Samples were mixed with 5×SDS Loading Dye and heated at 95° C. for 5 min.
Ras·GTP pulldown was performed with GST-RBD agarose beads (Cytoskeleton, 10 μL, 30 μg loaded GST-RBD). 50 μL lysate (2 mg/mL) was mixed with 10 μL beads, and the suspension was incubated at 4° C. for 1 h with constant end-to-end rotation. The beads were settled by centrifugation (500×g, 5 min) and the supernatant was carefully removed. The beads were washed with 2×500 μL ice-cold Co-IP wash buffer. Bound protein was eluted with 10 μL 2×SDS Loading Buffer.
Membranes were blocked in 5% BSA-TBST for 1 h at 23° C. […] After washing the membrane three times with TBST (5 min each wash), secondary antibodies (goat anti-rabbit IgG-IRDye 800 and goat anti-mouse IgG-IRDye 680, Li-COR) were added as solutions in 5% skim milk-TBST at the dilutions recommended by the manufacturer. Secondary antibody binding was allowed to proceed for 1 h at 23° C. The membrane was washed three times with TBST (5 min each wash) and imaged on a Li-COR Odyssey fluorescence imager.

[2] = system: cell lines with confirmed KRAS p.G12S mutations; test: Immunoblot in four cell lines with confirmed KRAS p.G12S mutations; format: cell-based; settings: 10 μM, 2 h
Protocol: as §1, with “Samples were mixed with 5×SDS Loading Dye and heated at 95° C. for 5 min.” left out
(§2) Unless otherwise noted, SDS-PAGE was run with Novex 16% Bis-Tris gel (Invitrogen) in MES running buffer (Invitrogen) at 200 V for 60 min following the manufacturer's instructions. […] The membrane was washed three times with TBST (5 min each wash) and imaged on a Li-COR Odyssey fluorescence imager.

[3] = system: A375 cells (wild-type KRAS); test: Immunoblot in A375 cells; format: cell-based; settings: 10 μM, 2 h
Protocol: as §1, with “Samples were mixed with 5×SDS Loading Dye and heated at 95° C. for 5 min.” left out
as §2

[4] = system: SW1990 cells (homozygous KRAS p.G12D); test: Immunoblot in SW1990 cells (G12S ligand); format: cell-based; settings: 10 μM, 2 h
Protocol: as §1, with “Samples were mixed with 5×SDS Loading Dye and heated at 95° C. for 5 min.” left out
as §2

[5] = system: H358 cells (heterozygous KRAS p.G12C); test: Immunoblot in H358 cells; format: cell-based; settings: 10 μM, 2 h
Protocol: as §1, with “Samples were mixed with 5×SDS Loading Dye and heated at 95° C. for 5 min.” left out
as §2

[6] = system: parental Ba/F3 cells (with IL-3); test: Cell viability assay (CellTiter-Glo), parental Ba/F3 cells; format: cell-based, murine; settings: Mus musculus, BaF3; +10 ng/mL IL-3, 72 h; read-out: IC50, growth of parental Ba/F3 cells
Protocol: Cells were seeded into 96-well white flat bottom plates (1,000 cells/well) (Corning) and incubated overnight. […] Cell viability was assessed using a commercial CellTiter-Glo (CTG) luminescence-based assay (Promega). Briefly, the 96-well plates were equilibrated to room temperature before the addition of diluted CTG reagent […] (1:4 CTG reagent:PBS). Plates were placed on an orbital shaker for 30 min before recording luminescence using a Spark 20M (Tecan) plate reader.

[7] = system: Ba/F3:K-Ras(G12S) cells; test: Phospho-ERK assay in Ba/F3:K-Ras(G12S) cells; format: cell-based, murine; settings: 1 h treatment
Protocol: Ba/F3 parental cells were pelleted and resuspend in IL-3 supplemented growth medium (RPMI 1640, 10% heat-inactivated FBS, 10 ng/mL mouse IL-3 medium) to 1×10^7/mL. Ba/F3 K-Ras(G12S) transductant cells were pelleted and resuspended in IL-3 free growth medium (RPMI 1640, 10% heat-inactivated FBS) to 1×10^7/mL. 25 μL cells were added to each well of a 96-well plate (2.5×10^5 cells/well), followed by 5 μL 6× compound solutions (6% DMSO). The mixture was incubated at 37° C. for 1 h. Cell lysis and subsequent high-throughput phospho-ERK assay was performed using Cisbio Advanced phospho-ERK (Thr202/Tyr204) cellular kit (PerkinElmer 64AERPEG) following the manufacturer's instructions.

[8] = target: T1, wild type K-Ras (Homo sapiens, UniProt P01116); test: Covalent modification of test protein after incubation with compound; format: binding; settings: 24-h incubation with 100 μM compound at 23° C. at pH 7.5
T1 construct: human K-Ras (wildtype, aa 1-169); 6xHis tag + TEV cleavage site (N, cleaved yes); made in house; host or cells: E. coli BL21(DE3)

[9] = target: T2, K-Ras G12D (Homo sapiens, UniProt P01116, G12D); test: as above; format: binding; settings: 24-h incubation with 100 μM compound at 23° C. at pH 7.5
T2 construct: human K-Ras (G12D, aa 1-169); 6xHis tag + TEV cleavage site (N, cleaved yes); made in house; host or cells: E. coli BL21(DE3)

[10] = target: T3, K-Ras G12E (Homo sapiens, UniProt P01116, G12E); test: as above; format: binding; settings: 24-h incubation with 100 μM compound at 23° C. at pH 7.5
T3 construct: human K-Ras (G12E, aa 1-169); 6xHis tag + TEV cleavage site (N, cleaved yes); made in house; host or cells: E. coli BL21(DE3)

- IC50 ([1]; Homo sapiens, A549 cells, read-out: apparent IC50, inhibition of Ras signaling): ~3 µM
- % covalent modification of wild type K-Ras [8]: 0%
- % covalent modification of K-Ras G12D [9]: 0%
- % covalent modification of K-Ras G12E [10]: 0%
Compound: O=C1O[C@H]2CN(c3nc(OCC45CCCN4CCC5)nc4c(F)c(-c5cccc6cccc(Cl)c56)ncc34)CC[C@@H]12 [5′]
- effects on phospho-Akt, phospho-Erk and Ras·GTP levels ([1]; 10 μM): nearly complete loss of Ras·GTP and concomitant inhibition of phospho-Erk
- phospho-ERK level and K-Ras gel mobility [2]: reduction of phospho-ERK level and gel mobility shift of the K-Ras protein
- signaling in A375 cells [3]: did not perturb the signaling
- signaling in SW1990 cells [4]: did not perturb the signaling
- phospho-Erk in H358 cells [5]: weak inhibition of phospho-Erk
- IC50 [6]: 12.5 µM
- phospho-ERK levels [7]: dose-dependent reduction of phospho-ERK levels
